Assay results reported in US20080255244A1, “CaM Kinase II Inhibitor Improves Retinoic Acid Therapy and Inhibits the Proliferation of Myeloid Leukemia Cells” (Fred Hutchinson Cancer Research Center, priority 2007, published 2008).

Columns and labels:
[1] = tested on: autophosphorylated CaMKIIγ in HL60 cells; test: Western blot of CaMKIIγ autophosphorylation in HL60 cells; assay type: cell-based, human; settings: for activated, autophosphorylated CaMKIIγ level: phospho-T286/7 antibody, ATRA 1 μM, TPA 0.1 μM
Protocol: (§1) FIG. 7. KN-62 regulates the differentiation of myeloid leukemia cell lines. (A) Wright Giemsa-stained HL-60 cells either (a) uninduced or treated for five days with (b) KN62 or (c) ATRA. (d) CD11b expression in HL-60 cells after five days exposure to KN62 (5 μM) or ATRA (1 μM). (B) Wright-Giemsa stained NB4 cells treated for five days with KN-62 (5 μM) and ATRA as indicated. […] (C) Cd11b expression of NB4 cells treated for five days with the indicated concentrations of RA and/or KN-62. (D) Western blots with the indicated antibodies were performed on HL60 cell lysates following incubation with KN62 for the indicated period of time. (E) Western blots of NB4 cell lysates following a five day incubation with the indicated compounds.
(§2) FIG. 9. Terminal differentiation/apoptosis of myeloid leukemia cells is associated with decreased CaMKIIγ activation. (A) Lysates from the HL60, NB4 and U937 myeloid cell lines treated with ATRA (1 μM) for the indicated period of time were subjected to Western blots. (B) Lysates from the indicated myeloid cell lines treated for five days with the indicated concentration of ATRA were subjected to Western blots. (C) Lysates from HL60 cells treated with TPA (0.1 μM) for the indicated time were subjected to Western blots. (D) Lysates from NB4 cells treated with arsenic trioxide (1 uM) for the indicated time were subjected to Western blots.
(§3) Protein extracts, Western blotting and co-immunoprecipitations. Westerns and co-immunoprecipitations were performed as previously detailed (Si, J., and Collins, S. J., Blood 100:4401-4409 (2002)).
(§4) Antibodies and Western blots. Protein extracts, immunoprecipitations and Western blots were performed as previously detailed (Si J, Collins S J. IL-3-induced enhancement of retinoic acid receptor activity is mediated through Stat5, which physically associates with retinoic acid receptors in an IL-3-dependent manner. Blood 100: 4401-9 (2002)). Antibodies against CaMKI, CaMKIIγ, CaMKIV, c-myc, Stat3, Stat5, calmodulin, as well as the phosphospecific CaMKII (T286, 287) and phosphospecific CaMKI (T177) antibodies were from Santa Cruz Biotechnology. Antibodies against phospho-Stat1 (Ser727), phospho-Stat3 (Ser727 and Tyr 705), phospho-Stat5 (Tyr 694), phospho-p44/42 MAP kinase (Thr202/Tyr 204), p44/42 MAP kinase, phospho-p38 MAP kinase (Thr 180/Tyr 182), phospho-GSK3β (Ser9) were from Cell Signaling Technology. Antibodies against Stat1, GSK3β, β-catenin, PP2Ac, and cyclin D1 were from BD Biosciences.

[2] = tested on: autophosphorylated CaMKIIγ in K562 cells; test: Western blot of CaMKIIγ autophosphorylation in K562 cells; assay type: cell-based, human; settings: gleevec 5 uM, ATRA five days
Protocol: as §2
FIG. 10. Inhibiting bcr-abl activity/expression inhibits CaMKIIγ activation. (A) Lysates from K562 cells undergoing growth arrest following treatment with gleevec (5 uM) for the indicated times were subjected to Western blots. (B) Lysates from TonB210.1 cells depleted of doxycycline for the indicated period of time were subjected to Western blots. (C) IL-3 dependent TonB210.1 cells were deprived of IL-3 for 24 hours (lane 1). The cells were then treated with the indicated compounds simultaneously with the addition of doxycycline (lanes 2-8). After 24 hours cell lysates were harvested and subjected to Western blots with the indicated CaMKII antibodies. (D) K562 cells were cultured for 48 hours with the indicated chemical inhibitors of specific signal transduction pathways. Cell lysates were harvested and subjected to Western blot analysis.
FIG. 12. CaMKII regulates multiple signal transduction pathways in myeloid cells. (A,B) Lysates from K562 cells cultured for the indicated time in KN93 were subjected to Western blots. (C) The K562 cells transduced as described in Materials and Methods with either (i) the doxycycline (DOX) inducible expression vector/transactivator harboring the full length, Lys^43 mutated, kinase dead CaMKIIγ (kdCaMKIIγ (Tet-on)) or (ii) the CaMKII shRNA generating plasmids, were cultured in liquid suspension in the presence or absence of DOX as indicated, and cell counts obtained after 48 hours. (D) Lysates from K562 cells transduced with the indicated vectors were subjected to Western blots utilizing the indicated antibodies. For lanes 2 and 4 doxycycline (DOX) treatment was for two days.
as §4

[3] = tested on: autophosphorylated CaMKIIγ in NB4 cells; test: Western blot of CaMKIIγ autophosphorylation in NB4 cells; assay type: cell-based, human; settings: for activated, autophosphorylated CaMKIIγ level: single agent, ATRA 1 μM, arsenic trioxide 1 uM
Protocol: as §1, §2, §3, §4

[4] = tested on: Stat3 Ser727 phosphorylation in TonB210 cells; test: bcr-abl induced Stat3 Ser727 phosphorylation in TonB210.1 cells (Western blot); assay type: cell-based; settings: compound added immediately prior to doxycycline, 24 hours
Protocol: FIG. 13. Stat3 is directly phosphorylated and activated by CaMKIIγ at Ser727. (A, i). Cell lysates from the indicated human leukemia cell lines were subjected to Western blots utilizing the indicated Stat3 antibodies. ii). Cell lysates from the same primary AML samples depicted in FIG. 1B were subjected to Western blots utilizing the indicated Stat3 antibodies. B). The IL-3 dependent TonB210.1 cells were deprived of IL-3 for 24 hours. The cells were then treated with the indicated compounds immediately prior to the addition of doxycycline. After an additional 24 hours cell lysates were harvested and subjected to Western blots with the indicated Stat3 antibodies. C). K562 cells were electroporated with a luciferase reporter driven by a Stat3 response element. The indicated concentrations of KN93 and the Stat 3 inhibitor, cucurbitacin I, were added and relative luciferase activity determined on cell lysates following 48 hours of culture. D, i) K562 cell lysates were immunoprecipitated with control IgG or a Stat3 antibody. The immunoprecipitates were then subjected to Western blot analysis with the indicated antibodies. ii,) A bacterial—expressed GST-Stat3 fusion protein was incubated in vitro with CaMKIIγ that had been immunoprecipitated from HL60 cells. Western blots were then performed on the reaction mixtures utilizing the indicated Stat3 antibodies. iii,). […]

[5] = tested on: autophosphorylated CaMKIIγ in TonB210.1 cells; test: bcr-abl induced CaMKII autophosphorylation in TonB210.1 cells (Western blot); assay type: cell-based; settings: TonB210.1 deprived of IL-3 for 24 hours, compound added with doxycycline

SMILES | total CaMKIIγ level [1] | activated, autophosphorylated CaMKIIγ level [1] | activated, autophosphorylated CaMKIIγ level [2] | total CaMKIIγ level [3] | activated, autophosphorylated CaMKIIγ level [3] | bcr-abl induced Stat3 Ser727 phosphorylation [4] | bcr-abl (tet/doxycycline) restored CaMKII autophosphorylation [5] | autophosphorylated CaMKIIγ level ([3]; KN62 combined with relatively low concentrations of RA, five days)
CC1=C(/C=C/C(C)=C/C=C/C(C)=C/C(=O)O)C(C)(C)CCC1 [ATRA, All-trans retinoic acid] | essentially unchanged | marked decrease | did not exhibit any decrease | essentially unchanged | marked decrease |  |  | 
CN([C@@H](Cc1ccc(OS(=O)(=O)c2cccc3cnccc23)cc1)C(=O)N1CCN(c2ccccc2)CC1)S(=O)(=O)c1cccc2cnccc12 [KN-62] | did not induce any significant changes | marked reduction |  |  | little effect | blocked | inhibited in a dose dependent manner | reduction
COc1ccc(S(=O)(=O)N(CCO)c2ccccc2CN(C)C/C=C/c2ccc(Cl)cc2)cc1 [KN-93] |  |  | time dependent reduction |  |  | blocked | inhibited in a dose dependent manner | 
